Measurements from article PMC10518010, “The leaderless communication peptide (LCP) class of quorum-sensing peptides is broadly distributed among Firmicutes” (Nature Communications, 2023).
One block for each compound: values may come before it. Where a SMILES comes first, the peptide text is derived from it. The star is where a group is joined. FITC = O=C1OC2(c3ccc(O)cc3Oc3cc(O)ccc32)c2ccc(NC(=S)*)cc21

Key:
WT S. salivarius = details: 30 min, fluorescence and microscopy
Description: Cells were harvested by centrifugation, and washed three times with sterile PBS. Cells were fixed on the coverslip using 1% glutaraldehyde and 3% formaldehyde. The images were taken using a Nikon Eclipse TiN-STORM super resolution microscope equipped with iXon3 897 EM-CCD camera.

[1] = target: FITC-labeled synthetic LCPss (S. salivarius); experiment: fluorescence polarisation; purified RopBss titrated against FITC-labeled LCPss; 20 mM potassium phosphate pH 6.0, 75 mM NaCl, 2% DMSO, 1 mM EDTA, 0.0005% Tween 20
RopB = details: S. pyogenes; cited from earlier work
Description: (§1) Recently, we discovered a new class of leaderless communication peptide (LCP) in human pathogen Streptococcus pyogenes that controls bacterial virulence (Fig. 1a)[10]. Contrary to characterized bacterial peptide signals, the LCP, known as SpeB-inducing peptide (SIP), is synthesized from a 24 base pair ultrasmall open reading frame (usORF) encoding a mature 8 amino acid peptide without the amino acid sequences required for secretion and processing. Consistent with the lack of hallmarks of bacterial peptide signals, the canonical machineries required for the export and import of qs peptides ...

[2] = test system: bacterial virulence in animal models of infection; details: cited from earlier work
Description: as §1

[3] = test system: secreted cysteine protease SpeB; details: S. pyogenes; cited from earlier work
Description: as §1

[4] = test system: specific DNA/promoter sequences; details: peer review response; ref "our detailed published findings"; cited from earlier work
Description: page 13: not provide the desired explanation for the differences in the binding sites of both receptors. Consequently, we provided analyses and explanation in the previous version that is supported by the data and meaningful. - Regarding this point, it has recently been published that RopB-GAS might act as a repressor and not as a transcriptional activator (DOI: 10.26508/lsa.202201809), as the authors show for RopBss. Could this fact explain the differences in their binding sites? Perhaps this point would be interesting to discuss in the manuscript. RESPONSE: We are aware of this study. Howeve ...

Compound: CC[C@H](C)[C@H](NC(=O)[C@H](CC(C)C)NC(=O)[C@H](Cc1c[nH]c2ccccc12)NC(=O)[C@H](CCSC)NC(=S)Nc1ccc2c(c1)C(=O)OC21c2ccc(O)cc2Oc2cc(O)ccc21)C(=O)N[C@@H](CC(C)C)C(=O)N[C@@H](CC(C)C)C(=O)N[C@@H](Cc1ccccc1)C(=O)N[C@@H](CC(C)C)C(=O)O [FITC-LCPss] ({FITC}-MWLILLFL-OH)
Internalization of exogenously added peptide (in words) (WT S. salivarius): internalization of the exogenously added FITC-labeled synthetic LCPss

Kd [1]: 8 nM
Compound: RopBss (RopB homolog, cytosolic LCP receptor of Streptococcus salivarius)

Compound: MWLLLLFL [SIP, SpeB-inducing peptide of Streptococcus pyogenes, mature 8 amino acid peptide]
Binding to RopB (in words) (RopB): binds to a RRNPPA-family transcription activator, Regulator of Protease B (RopB)
Bacterial virulence (in words) [2]: increased bacterial virulence in animal models of infection
SpeB regulation (in words) [3]: upregulation of an adjacently located virulence factor, a secreted cysteine protease SpeB
RopB binding to promoter sequences in the presence of SIP (in words) [4]: with high affinity only in the presence of SIP
